Measured values reported in publication PMC9841532, “Exploring the Effect of Halogenation in a Series of Potent and Selective A2B Adenosine Receptor Antagonists” (Journal of Medicinal Chemistry, 2022).
Like-named read-outs stand apart in the source and are kept apart here.

Key:
[1] = biological target: T1, hA2AAR (Homo sapiens, UniProt P29274); test: Radioligand binding competition, [3H]ZM241385, membranes from HeLa-A2A cells; settings: for % at 1 μM hA2A (percentage displacement of specific binding): [3H]ZM241385, human HeLa cells, n = 2
T1 construct: expressed in transfected cells; host or cells: HeLa (HeLa-A2A) cell membranes
T1 sequence (P29274 whole entry): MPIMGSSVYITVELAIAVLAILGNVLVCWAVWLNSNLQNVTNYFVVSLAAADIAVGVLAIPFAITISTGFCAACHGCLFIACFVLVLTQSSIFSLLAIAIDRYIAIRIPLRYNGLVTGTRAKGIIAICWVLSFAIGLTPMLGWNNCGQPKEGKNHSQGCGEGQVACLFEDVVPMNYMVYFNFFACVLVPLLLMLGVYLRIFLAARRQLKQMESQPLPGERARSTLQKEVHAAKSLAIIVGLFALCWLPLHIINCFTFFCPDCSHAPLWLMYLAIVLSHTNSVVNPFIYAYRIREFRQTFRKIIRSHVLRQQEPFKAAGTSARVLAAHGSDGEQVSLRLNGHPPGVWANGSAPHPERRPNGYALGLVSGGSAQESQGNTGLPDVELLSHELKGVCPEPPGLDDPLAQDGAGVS
Description: (§1) All ligands reported in Tables 1–5 were obtained and tested as racemic mixtures. The whole set was evaluated in silico with a combination of a Rdkit[37] PAINS filter and Instant JChem from Chemaxon (https://www.chemaxon.com), to rule out the possibility that these ligands can be promiscuous pan-assay interference compounds (PAINS) and to assess their bioavailability, respectively. […] The stereoisomers of selected compounds were obtained by chiral resolution and tested at the four human AR subtypes in their enantiopure forms (Table 6).
(§2) A brief description is given below. […] Non-specific binding was determined in the presence of 10 μM R-PIA. The reaction mixture was incubated at 25 °C for 60 min. […] The reaction mixture was incubated at 25 °C for 30 min. […] The reaction mixture was incubated at 25 °C for 30 min. […] Non-specific binding was determined in the presence of 100 μM R-PIA. […] After the incubation time, membranes were washed and filtered and radioactivity was detected in a MicroBeta TriLux reader (PerkinElmer).

[2] = biological target: T2, hA3AR (Homo sapiens, UniProt P0DMS8); test: Radioligand binding competition, [3H]NECA, membranes from HeLa-A3 cells; settings: 1 μM, [3H]NECA, human HeLa cells, n = 2
T2 construct: expressed in transfected cells; host or cells: HeLa (HeLa-A3) cell membranes
T2 sequence (P0DMS8 1-318): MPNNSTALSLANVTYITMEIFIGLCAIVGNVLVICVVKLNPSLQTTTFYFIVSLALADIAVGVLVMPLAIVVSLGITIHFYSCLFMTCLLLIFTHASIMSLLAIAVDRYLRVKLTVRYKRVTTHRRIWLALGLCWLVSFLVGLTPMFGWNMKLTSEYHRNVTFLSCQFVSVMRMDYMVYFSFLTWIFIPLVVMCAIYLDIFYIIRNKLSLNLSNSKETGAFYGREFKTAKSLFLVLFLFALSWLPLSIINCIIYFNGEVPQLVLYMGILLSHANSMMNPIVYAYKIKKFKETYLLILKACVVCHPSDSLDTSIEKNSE
Description: as §1, §2

[3] = biological target: T3, hA1AR (Homo sapiens, UniProt P30542); test: Radioligand binding competition, [3H]DPCPX, membranes from CHO-A1 cells; settings: for % at 1 μM hA1 (percentage displacement of specific binding): [3H]DPCPX, human CHO cells, n = 2
T3 sequence (P30542 1-326): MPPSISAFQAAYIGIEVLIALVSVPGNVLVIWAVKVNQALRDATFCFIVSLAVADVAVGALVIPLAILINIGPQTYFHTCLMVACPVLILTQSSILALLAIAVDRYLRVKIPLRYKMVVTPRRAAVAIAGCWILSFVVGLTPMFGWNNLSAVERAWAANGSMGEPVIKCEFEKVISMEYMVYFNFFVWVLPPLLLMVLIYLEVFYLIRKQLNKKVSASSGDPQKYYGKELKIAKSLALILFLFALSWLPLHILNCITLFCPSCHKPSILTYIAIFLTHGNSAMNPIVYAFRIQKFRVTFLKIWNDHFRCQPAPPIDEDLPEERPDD
Description: as §1, §2

[4] = biological target: T4, hA2BAR (Homo sapiens, UniProt P29275); test: Radioligand binding competition, [3H]DPCPX, membranes from HEK-293-A2B cells; parameters: Exp. dG: unit not given here; settings: for Exp. dG: experimental binding free energy, Supplementary Table S3, unit not given (errors in kcal/mol); for % at 1 μM hA2B (percentage displacement of specific binding): [3H]DPCPX, human HEK-293 cells, n = 2
T4 construct: host or cells: HEK-293 (HEK-293-A2B) cell membranes
T4 sequence (P29275 1-332): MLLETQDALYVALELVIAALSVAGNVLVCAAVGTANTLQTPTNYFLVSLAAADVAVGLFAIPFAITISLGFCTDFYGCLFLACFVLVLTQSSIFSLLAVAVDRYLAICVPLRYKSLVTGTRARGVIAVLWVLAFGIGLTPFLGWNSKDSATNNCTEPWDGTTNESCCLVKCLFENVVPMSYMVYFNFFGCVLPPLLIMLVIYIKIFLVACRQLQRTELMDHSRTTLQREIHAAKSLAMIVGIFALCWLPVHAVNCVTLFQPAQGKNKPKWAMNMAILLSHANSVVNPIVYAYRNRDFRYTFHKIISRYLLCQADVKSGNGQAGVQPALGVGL
Description: as §1, §2

[5] = displacement of specific [3H]DPCPX binding in human HEK-293 cells, n = 3, read-out: Ki hA2B

SMILES	% at 1 μM hA2A (percentage displacement of specific binding) [1] [%]	% at 1 μM hA3 (percentage displacement of specific binding) [2] [%]	% at 1 μM hA1 (percentage displacement of specific binding) [3] [%]	Ki [4, 5] [nM]	Exp. dG [4]	Ki ([4]; read-out: Ki hA2B) [nM]	% at 1 μM hA2B (percentage displacement of specific binding) [4] [%]	Ki ([1]; displacement of specific [3H]ZM241385 binding in human HeLa cells, n = 3, read-out: Ki hA2A) [nM]	Ki ([4]; supplementary CSV, no unit printed (nM in Tables 2-5), read-out: Ki_hA2B) [nM]	Ki ([3]; displacement of specific [3H]DPCPX binding in human CHO cells, n = 3, read-out: Ki hA1) [nM]
CC1=C(C(=O)OC(C)C)C(c2ccoc2)n2c(nc3cc(F)ccc32)N1 (stereo not drawn) [16d]	31	4	14	8.6 ± 0.5	-11	< 10	–	–	–	–
CCOC(=O)C1=C(C)Nc2nc3cc(F)ccc3n2C1c1cccs1 (stereo not drawn) [16e]	3	3	1	724 ± 8	–	–	–	–	–	–
CC1=C(C(=O)OC(C)C)C(c2cccs2)n2c(nc3cc(F)ccc32)N1 (stereo not drawn) [16f]	1	7	2	668 ± 6	-8.419	–	–	–	–	–
CCOC(=O)C1=C(C)Nc2nc3cc(F)ccc3n2C1c1ccsc1 (stereo not drawn) [16g]	1	3	1	187 ± 2	-9.172	–	–	–	–	–
CC1=C(C(=O)OC(C)C)C(c2ccsc2)n2c(nc3cc(F)ccc32)N1 (stereo not drawn) [16h]	1	5	2	75.5 ± 3.2	-9.71	–	–	–	–	–
CCOC(=O)C1=C(C)Nc2nc3cc(Cl)ccc3n2C1c1ccco1 (stereo not drawn) [16i]	10	4	23	8.42 ± 1.4	-11.01	< 10	–	–	–	–
CCOC(=O)C1=C(C)Nc2nc3cc(Cl)ccc3n2C1c1ccoc1 (stereo not drawn) [16k]	43	4	31	7.21 ± 0.4	-11.1	< 10	–	–	–	–
CCOC(=O)C1=C(C)Nc2nc3cc(Cl)ccc3n2C1c1cccs1 (stereo not drawn) [16m]	2	1	3	–	–	–	41	–	–	–
CC1=C(C(=O)OC(C)C)C(c2cccs2)n2c(nc3cc(Cl)ccc32)N1 (stereo not drawn) [16n]	2	1	2	837 ± 11	-8.286	–	–	–	–	–
CCOC(=O)C1=C(C)Nc2nc3cc(Cl)ccc3n2C1c1ccsc1 (stereo not drawn) [16o]	7	8	2	911 ± 14	-8.235	–	–	–	–	–
CC1=C(C(=O)OC(C)C)C(c2ccsc2)n2c(nc3cc(Cl)ccc32)N1 (stereo not drawn) [16p]	7	4	7	165 ± 9	–	–	–	–	–	–
CCOC(=O)C1=C(C)Nc2nc3cc(Br)ccc3n2C1c1ccco1 (stereo not drawn) [16q]	29	33	18	26.9 ± 0.8	–	–	–	–	–	–
CC1=C(C(=O)OC(C)C)C(c2ccoc2)n2c(nc3cc(Br)ccc32)N1 (stereo not drawn) [16t]	–	2	2	8.2 ± 1.1	–	< 10	–	509 ± 6	–	–
CCOC(=O)C1=C(C)Nc2nc3cc(Br)ccc3n2C1c1cccs1 (stereo not drawn) [16u]	3	6	6	–	–	–	55	–	–	–
CC1=C(C(=O)OC(C)C)C(c2cccs2)n2c(nc3cc(Br)ccc32)N1 (stereo not drawn) [16v]	1	1	1	115 ± 3	–	–	–	–	115	–
CCOC(=O)C1=C(C)Nc2nc3cc(Br)ccc3n2C1c1ccsc1 (stereo not drawn) [16w]	9	1	1	537 ± 8	–	–	–	–	–	–
CC1=C(C(=O)OC(C)C)C(c2ccsc2)n2c(nc3cc(Br)ccc32)N1 (stereo not drawn) [16x]	1	4	2	61.1 ± 1.8	–	–	–	–	–	–
CC1=C(C(=O)OC(C)C)C(c2cocn2)n2c(nc3ccc(Cl)cc32)N1 (stereo not drawn) [17d]	1	20	27	102 ± 7	-9.528	–	–	–	–	–
CC1=C(C(=O)OC(C)C)[C@H](c2ccco2)n2c(nc3cc(F)ccc32)N1 [(R)-16b]	5	19	15	–	–	–	41	–	–	–

More lines, now with the values ahead:

% at 1 μM hA2A (percentage displacement of specific binding) [1] [%]	% at 1 μM hA3 (percentage displacement of specific binding) [2] [%]	% at 1 μM hA1 (percentage displacement of specific binding) [3] [%]	Ki [4, 5] [nM]	Exp. dG [4]	Ki ([4]; read-out: Ki hA2B) [nM]	% at 1 μM hA2B (percentage displacement of specific binding) [4] [%]	Ki ([1]; displacement of specific [3H]ZM241385 binding in human HeLa cells, n = 3, read-out: Ki hA2A) [nM]	Ki ([4]; supplementary CSV, no unit printed (nM in Tables 2-5), read-out: Ki_hA2B) [nM]	Ki ([3]; displacement of specific [3H]DPCPX binding in human CHO cells, n = 3, read-out: Ki hA1) [nM]	SMILES
4	26	43	44.7 ± 1.4	-10.02	–	–	–	–	–	CCOC(=O)C1=C(C)Nc2nc3ccc(F)cc3n2C1c1cocn1 (stereo not drawn) [17a]
19	22	34	7.6 ± 0.6	-11.07	< 10	–	–	–	–	CC1=C(C(=O)OC(C)C)C(c2cocn2)n2c(nc3ccc(F)cc32)N1 (stereo not drawn) [17b]
14	11	–	25.6 ± 1.2	-10.35	–	–	–	–	227	CCOC(=O)C1=C(C)Nc2nc3ccc(Cl)cc3n2C1c1cocn1 (stereo not drawn) [17c]
16	16	25	14.7 ± 1.1	-10.68	–	–	–	–	–	CCOC(=O)C1=C(C)Nc2nc3cc(F)ccc3n2C1c1cocn1 (stereo not drawn) [18a]
13	15	30	8.6 ± 0.4	-11	< 10	–	–	–	–	CCOC(=O)C1=C(C)Nc2nc3cc(Cl)ccc3n2C1c1cocn1 (stereo not drawn) [18c]
35	23	23	6.4 ± 0.7	-11.17	< 10	–	–	–	–	CC1=C(C(=O)OC(C)C)C(c2cocn2)n2c(nc3cc(Cl)ccc32)N1 (stereo not drawn) [18d]
